{"source": "paper PMC5773577", "about": "“Novel Miniature Membrane Active Lipopeptidomimetics against Planktonic and Biofilm Embedded Methicillin-Resistant Staphylococcus aureus” (Scientific Reports, 2018)", "type_in_all_cases": "cell-based, Staphylococcus aureus", "key": {"[1]": {"system": "MRSA ATCC 33591 biofilm", "experiment": "Biofilm formation inhibition, viable count assay", "conditions": "24 h biofilm formation inhibition, 2.5 μg/mL", "method": "For the experiment, a protocol as described previously was used with slight modifications. Briefly, desired concentrations of the test agents in PBS were added to the wells of a 96-well plate (100 μL). Thereafter, overnight grown stationary phase MRSA ATCC 33591 culture (~4 × 10^5 CFU/mL) in TSB medium (supplemented with 0.25% glucose and 0.5% NaCl) was added to the 96-well plates (100 μL). The plates were incubated at 37 °C without shaking for 24 h. After 24 h, the used medium was discarded and the biofilms formed were washed with PBS once. Subsequently, CV and AB assays were performed to quantify biomass and viability respectively, as described below:\nThe experiments were repeated on two different days and on each day 6 wells were used for a single treatment. Mean ± S.E. for both CV assay and AB assay is presented here. Corresponding to CV and AB assay the viability of cells upon treatment was also evaluated. Towards this 200 μL PBS was added to washed and treated wells of the 96-well plate and the contents were scraped thoroughly. The resulting bacterial suspension was sonicated briefly, diluted in PBS and plated on BHI agar plates. The agar plates were incubated at 37 °C for 16–24 h and CFUs were counted. Mean ± S.E. data from two independent experiments performed on two different days is shown here."}, "[2]": {"system": "48 h mature MRSA ATCC 33591 biofilms", "experiment": "48 h mature biofilm, confocal laser scanning microscopy (Live/Dead)", "conditions": "24 h treatment at 20 × MIC (S-7 226 μg/mL, S-8 28 μg/mL, VAN 28 μg/mL), untreated 22 μm", "method": "For the experiment, a protocol as described previously was used with slight modifications[24],[72]. Briefly, stationary phase MRSA ATCC 33591 culture ~10^5 CFU/mL in TSB medium (supplemented with 0.25% glucose and 0.5% NaCl) was added to the well of an 8-well chamber slide (200 μL). The slide was incubated at 37 °C without shaking for 24 h. After 24 h, the medium was discarded and the biofilm was washed with PBS once (10 mM sodium phosphate, 150 mM NaCl, pH 7.3). […] After 48 h (24 h + 24 h), the planktonic cells were removed and the biofilms were washed with PBS once. To the wells, 200 μL of PBS containing BacLight Live/Dead viability stain [SYTO9 (green fluorescence) and propidium iodide (PI) (red fluorescence) in equal volume] was added and the chamber slides were incubated at room temperature for 15 min in dark. After 15 min, the stain was removed and biofilms were washed with PBS once. To fix the biofilms, 200 μL of neutral buffered formalin (10% in PBS) was added to each well and the slides were kept at room temperature in dark for 30 min. After fixation, the biofilms were washed once, the chamber was removed and a cover slip was placed over the slide. The biofilms were viewed with an Olympus FluoView^TM FV1000 confocal laser scanning microscope (2D and z-stacking). […] For each sample, the biofilms thickness was also determined using z-scanning confocal microscopy. […]"}, "[3]": {"system": "MRSA ATCC 33591", "experiment": "Resistance development over 17 serial passages at sub-MIC", "conditions": "at the 11th passage, constant up to the 17th passage", "method": "For the experiment, a method as described previously was used with slight modifications. Briefly, for the experiment, on day 1 the initial MICs of all test agents were determined using routine MIC experiment protocol as described earlier. Next day, bacterial cells (100 μL) from the wells with concentrations 2–4 fold less than the MIC value for each test agent were used to set up fresh mid-log phase cultures in MHB medium for setting up the MIC plate. This was repeated for a total of 17 sub-lethal treatments with each antimicrobial agent. For every passage, corresponding glycerol stocks (15% v/v) were made for each culture and were kept at −80 °C for future use."}, "[4]": {"system": "MRSA ATCC 33591", "experiment": "Cell viability corresponding to membrane depolarization experiment", "conditions": "dye-loaded cells in HEPES-glucose buffer, 4 × MIC, 2 min incubation", "quoted_text": "Briefly, exponential phase cells grown in MHB were harvested by centrifugation, washed and re-suspended in respiration buffer (5 mM HEPES, 20 mM glucose, pH 7.2) to 2.5 × 10^6 CFU/mL. […] The dye-loaded cells (800 μL) were then treated with peptidomimetics at respective 1× and 4× MIC concentrations (2–20 μL) and consequent fluorescence increase after 2 min of addition was measured in a Shimadzu RF-5301 PC spectrofluorimeter. As controls IL, melittin and VAN were also assayed under identical conditions. […] The viability of dye-loaded cells corresponding to depolarization experiment at 4 × MIC concentration was also measured by plating the diluted aliquots onto BHI agar plates.\nCell viability corresponding to membrane depolarization experiment.\ndye-loaded cells suspended in HEPES-glucose buffer (5 mM, 20 mM glucose, pH 7.2)\nwere incubated with different test agents for 2 min and subsequently diluted\nappropriately and plated on BHI agar plates. The plates were incubated at 37 °C for 16-\n18 h and colonies were counted. The experiment was repeated on two different days\nand mean ± S.D. is presented here."}, "[5]": {"system": "exponential phase MRSA ATCC 33591", "experiment": "Bacterial killing kinetics, exponential phase cells in MHB medium", "conditions": "24 h", "method": "The kinetics of bacterial killing was determined against MRSA ATCC 33591 strain using drop plate method as described previously with slight modifications[51],[67],[70],[71]. The experiment was performed against exponential phase MRSA in normal medium and stationary phase MRSA in nutrient-depleted medium. For the preparation of nutrient-depleted medium, the primary MRSA ATCC 33591 culture in MHB medium was allowed to grow for 18 h at 37 °C and the cells were removed by centrifugation. The cell pellet was used for stationary phase culture and the spent medium supernatant was used as a nutrient-depleted medium. For obtaining exponential phase cells, MRSA was grown overnight in MHB and 100 μL suspension was used to inoculate 10 mL fresh MHB medium. The cells were incubated at 37 °C for 4–6 h to reach exponential phase.\nFor the experiments, both exponential and stationary phase cells were re-suspended separately in normal or nutrient-depleted mediums to OD600 = 0.5 (~10^8 CFU/mL). A 25 µL aliquot of this suspension was added to 475 μL of respective medium with or without test peptidomimetics/antibiotics in an eppendorf tube. […] The agar plates were incubated at 37 °C for 16–18 h and the colonies were counted (dilutions having colonies in the range of 10–100 were counted). […]"}}}
{"smiles": "CN[C@H](CC(C)C)C(=O)N[C@H]1C(=O)N[C@@H](CC(N)=O)C(=O)N[C@H]2C(=O)N[C@H]3C(=O)N[C@H](C(=O)N[C@H](C(=O)O)c4cc(O)cc(O)c4-c4cc3ccc4O)[C@H](O)c3ccc(c(Cl)c3)Oc3cc2cc(c3O[C@@H]2O[C@H](CO)[C@@H](O)[C@H](O)[C@H]2O[C@H]2C[C@](C)(N)[C@H](O)[C@H](C)O2)Oc2ccc(cc2Cl)[C@H]1O", "note": "[VAN, vancomycin]", "values": [{"measurement": "log reduction in viability compared to 24 h growth control", "setting": "[1]", "value": "> 3", "unit": "log"}, {"measurement": "remaining viable count", "setting": "[1]; mean ± S.E., two experiments, untreated 7.59 ± 0.08", "value": "1.44 ± 1.44", "unit": "log CFU/mL"}, {"measurement": "biofilm thickness", "setting": "[2]", "value": 14, "unit": "μm"}, {"measurement": "fold increase in MIC", "setting": "[3]", "value": 8, "unit": "fold"}, {"measurement": "log reduction in viability relative to untreated control", "setting": "[4]", "value": 0.6, "unit": "log"}, {"measurement": "log reduction in CFU/mL", "setting": "[5]; 4 × MIC", "value": "~ 2.3 log"}, {"measurement": "log reduction in CFU/mL", "setting": "[5]; 10 × MIC", "value": "~ 2.3 log"}]}
